Experimental data reported in BindingDB's records for PubMed 35688004 (University of Hradec Kralove, 2022).

Key:
[1] = molecular target: Phosphatidylinositol 4,5-bisphosphate 3-kinase catalytic subunit beta isoform (Homo sapiens, UniProt P42338); assay: Inhibition of human PI3Kbeta preincubated for 15 mins followed by ATP addition measured after 1 hr by TR-FRET assay
[2] = molecular target: Phosphatidylinositol 4,5-bisphosphate 3-kinase catalytic subunit alpha isoform (Homo sapiens, UniProt P42336); assay: Inhibition of human PI3Kalpha preincubated for 15 mins followed by ATP addition measured after 1 hr by TR-FRET assay
Chain of Phosphatidylinositol 4,5-bisphosphate 3-kinase catalytic subunit alpha isoform (P42336 whole entry, canonical isoform): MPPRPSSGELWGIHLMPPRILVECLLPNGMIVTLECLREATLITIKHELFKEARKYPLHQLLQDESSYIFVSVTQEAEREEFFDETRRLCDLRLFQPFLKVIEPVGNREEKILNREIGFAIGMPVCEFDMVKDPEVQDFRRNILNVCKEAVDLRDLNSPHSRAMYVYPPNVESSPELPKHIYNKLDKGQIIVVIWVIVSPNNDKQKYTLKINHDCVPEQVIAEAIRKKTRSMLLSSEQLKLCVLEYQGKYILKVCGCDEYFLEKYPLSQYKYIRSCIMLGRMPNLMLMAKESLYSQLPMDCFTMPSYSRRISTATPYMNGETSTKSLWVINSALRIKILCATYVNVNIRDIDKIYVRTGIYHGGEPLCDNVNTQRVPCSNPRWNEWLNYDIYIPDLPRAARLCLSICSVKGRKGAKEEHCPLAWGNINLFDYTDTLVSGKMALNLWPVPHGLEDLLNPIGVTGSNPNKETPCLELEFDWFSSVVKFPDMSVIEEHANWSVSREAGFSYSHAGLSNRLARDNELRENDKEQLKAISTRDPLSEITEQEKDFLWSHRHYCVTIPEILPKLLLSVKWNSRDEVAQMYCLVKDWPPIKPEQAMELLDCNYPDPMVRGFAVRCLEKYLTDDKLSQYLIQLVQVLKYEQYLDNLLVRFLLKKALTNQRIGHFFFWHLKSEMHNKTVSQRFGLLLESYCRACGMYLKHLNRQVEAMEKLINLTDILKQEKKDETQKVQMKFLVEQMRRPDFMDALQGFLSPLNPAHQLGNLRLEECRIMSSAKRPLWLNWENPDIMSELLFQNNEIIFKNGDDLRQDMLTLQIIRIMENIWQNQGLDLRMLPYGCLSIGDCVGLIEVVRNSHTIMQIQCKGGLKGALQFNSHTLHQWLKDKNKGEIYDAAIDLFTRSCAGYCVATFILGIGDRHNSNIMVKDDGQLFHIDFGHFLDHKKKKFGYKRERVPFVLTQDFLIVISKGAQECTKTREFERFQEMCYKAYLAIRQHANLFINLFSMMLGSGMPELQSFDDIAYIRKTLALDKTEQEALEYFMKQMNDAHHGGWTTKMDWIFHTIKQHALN

[3] = molecular target: Phosphatidylinositol 4,5-bisphosphate 3-kinase catalytic subunit gamma isoform (Homo sapiens, UniProt P48736); assay: Inhibition of human PI3Kgamma preincubated for 15 mins followed by ATP addition measured after 1 hr by TR-FRET assay
Chain of Phosphatidylinositol 4,5-bisphosphate 3-kinase catalytic subunit gamma isoform (P48736 whole entry, canonical isoform): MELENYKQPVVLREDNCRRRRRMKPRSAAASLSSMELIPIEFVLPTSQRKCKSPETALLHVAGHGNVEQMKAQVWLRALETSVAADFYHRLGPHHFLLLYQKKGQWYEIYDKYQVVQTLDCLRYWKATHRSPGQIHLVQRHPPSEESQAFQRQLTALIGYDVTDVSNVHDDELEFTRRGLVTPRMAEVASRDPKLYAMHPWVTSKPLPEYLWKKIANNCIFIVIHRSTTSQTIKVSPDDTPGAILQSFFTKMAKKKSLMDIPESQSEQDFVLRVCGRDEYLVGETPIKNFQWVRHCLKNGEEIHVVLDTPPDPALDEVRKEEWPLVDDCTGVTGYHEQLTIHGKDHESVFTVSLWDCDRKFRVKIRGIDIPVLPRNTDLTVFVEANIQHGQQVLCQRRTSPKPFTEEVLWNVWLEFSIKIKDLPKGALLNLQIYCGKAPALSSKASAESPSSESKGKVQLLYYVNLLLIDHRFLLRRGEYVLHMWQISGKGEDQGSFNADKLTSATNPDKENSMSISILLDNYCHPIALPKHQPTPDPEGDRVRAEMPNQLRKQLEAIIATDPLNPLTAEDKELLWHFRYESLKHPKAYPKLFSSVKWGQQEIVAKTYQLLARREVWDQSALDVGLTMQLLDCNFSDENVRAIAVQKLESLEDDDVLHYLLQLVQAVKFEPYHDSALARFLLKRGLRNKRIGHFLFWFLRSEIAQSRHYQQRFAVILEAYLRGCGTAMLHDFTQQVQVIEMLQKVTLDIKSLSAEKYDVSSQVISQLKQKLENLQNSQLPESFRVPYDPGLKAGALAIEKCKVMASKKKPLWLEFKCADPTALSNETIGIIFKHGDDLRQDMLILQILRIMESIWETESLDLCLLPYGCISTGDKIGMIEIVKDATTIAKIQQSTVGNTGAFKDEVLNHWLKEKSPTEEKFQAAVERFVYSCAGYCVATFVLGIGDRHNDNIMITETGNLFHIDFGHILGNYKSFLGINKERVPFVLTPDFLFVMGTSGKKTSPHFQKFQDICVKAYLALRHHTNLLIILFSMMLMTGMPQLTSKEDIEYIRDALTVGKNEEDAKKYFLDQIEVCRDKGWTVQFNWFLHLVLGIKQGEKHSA

Chain of Phosphatidylinositol 4,5-bisphosphate 3-kinase catalytic subunit beta isoform (P42338 whole entry, canonical isoform): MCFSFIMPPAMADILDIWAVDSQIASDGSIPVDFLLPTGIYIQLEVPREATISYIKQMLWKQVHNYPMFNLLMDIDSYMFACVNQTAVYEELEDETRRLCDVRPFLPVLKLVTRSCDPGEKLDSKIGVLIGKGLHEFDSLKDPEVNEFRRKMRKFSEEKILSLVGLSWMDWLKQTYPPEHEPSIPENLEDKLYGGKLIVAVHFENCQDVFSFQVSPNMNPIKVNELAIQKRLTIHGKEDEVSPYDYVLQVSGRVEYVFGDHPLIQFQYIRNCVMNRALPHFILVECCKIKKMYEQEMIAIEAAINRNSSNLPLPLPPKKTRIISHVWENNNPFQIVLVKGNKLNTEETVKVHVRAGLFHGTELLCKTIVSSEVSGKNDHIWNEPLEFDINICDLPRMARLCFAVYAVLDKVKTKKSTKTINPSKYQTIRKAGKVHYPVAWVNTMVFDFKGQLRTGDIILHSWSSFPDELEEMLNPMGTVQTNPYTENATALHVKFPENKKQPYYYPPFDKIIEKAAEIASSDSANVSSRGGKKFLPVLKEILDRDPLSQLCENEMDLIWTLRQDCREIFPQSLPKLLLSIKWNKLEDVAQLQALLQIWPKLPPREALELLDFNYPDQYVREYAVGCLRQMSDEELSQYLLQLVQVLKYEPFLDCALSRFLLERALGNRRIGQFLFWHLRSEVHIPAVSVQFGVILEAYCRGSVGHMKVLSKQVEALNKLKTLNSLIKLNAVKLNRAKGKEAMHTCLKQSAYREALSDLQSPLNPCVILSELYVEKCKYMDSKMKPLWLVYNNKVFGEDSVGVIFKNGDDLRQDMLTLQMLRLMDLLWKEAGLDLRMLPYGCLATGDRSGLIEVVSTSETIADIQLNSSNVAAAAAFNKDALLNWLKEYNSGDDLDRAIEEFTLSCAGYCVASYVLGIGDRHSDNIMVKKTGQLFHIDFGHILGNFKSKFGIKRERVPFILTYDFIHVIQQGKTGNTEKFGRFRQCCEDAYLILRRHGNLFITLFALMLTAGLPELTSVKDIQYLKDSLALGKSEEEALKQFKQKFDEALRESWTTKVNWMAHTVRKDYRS

SMILES	IC50 [1]	IC50 [2]	IC50 [3]
Nc1ncnc2c1c(-c1cc3cccc(O)c3[nH]1)nn2C1CCOCC1 [US10172858, Table 2.62]	> 500 nM	> 500 nM	> 500 nM
CC(=O)N1CCC(n2nc(-c3cc4c(Cl)ccc(O)c4[nH]3)c3c(N)ncnc32)CC1 [US10172858, Table 2.69]	> 500 nM	> 500 nM	> 500 nM
CC(=O)N1CCC(n2nc(-c3cc4cc(O)cc(Cl)c4[nH]3)c3c(N)ncnc32)CC1 [US10172858, Table 2.70]	> 500 nM		
Nc1ncnc2c1c(-c1cc3cc(O)ccc3[nH]1)nn2C1CCOCC1 [US10172858, Table 2.42]	> 500 nM	> 500 nM	

Results, then the compound that gave them:

IC50 [1]	IC50 [2]	IC50 [3]	SMILES
> 500 nM			COc1cccc2cc(-c3nn(C4CCOCC4)c4ncnc(N)c34)[nH]c12 [US10172858, Table 2.63]
> 500 nM			Nc1ncnc2c1c(-c1cc3cc(O)cc(Cl)c3[nH]1)nn2C1CCOCC1 [US10172858, Table 2.68]
